Laboratory results from patent EP4442727A1, “EPOXY RESIN COMPOSITIONS COMPRISING A LEWIS ACID” (priority 2023, dated 2024).
Read-outs that look alike come from different tables or passages of the source.

Assays:
[1] = format: physicochemical; conditions: for Viscosity, Initial: Epoxy Composition 3 (Table 8) with the named Lewis Acid Additive, before storage; for 7d (increase in viscosity in %) / Viscosity, 7d / 15 d (increase in viscosity in %) / Viscosity, 15 d: Epoxy Composition 3 with the named Lewis Acid Additive; for 7d (increase in viscosity in %) / Viscosity, 7d: stored at 50°C for 7 days; for 15 d (increase in viscosity in %) / Viscosity, 15 d: stored at 50°C for 15 days
Procedure: The A1 value gave the viscosity in Pascal seconds.
The epoxy resin was put in a Speedmixer cup (Hauschild Engineering), the thixotrope and dicyandiamide were added, and the raw materials mixed at 3500 s^-1 for 5 min. The accelerator and the additive were then weighed into the resin formulation and the mixture again speedmixed at 3500 s^-1 for 15 s. Formulations were stored at 50 °C. The complex viscosity was determined after 7 d and 15 d. Table 9. Viscosity of adhesive formulations stored at 50°C for 7 and 15 days in Pa*s.

[2] = cited from earlier work

SMILES	Viscosity, Initial [1]	7d (increase in viscosity in %) [1]	Viscosity, 7d [1]	15 d (increase in viscosity in %) [1]	Viscosity, 15 d [1]	solubility in water ([2]; at 25°C)	solubility in water ([2]; at 25°C, printed in brackets beside the g/100g value)	solubility in water ([2]; at 17.8°C)
CCCCCCCCCCCCCCCCCC(=O)[O-].[Al+3].[OH-].[OH-] [AMS, Aluminum monostearate]	53 Pa*s	245%	130 Pa*s	337%	179 Pa*s			
[Cl-].[Cl-].[Zn+2] [ZnCl2, Zinc chloride]	54 Pa*s	140%	76 Pa*s	292%	158 Pa*s	432 g/100g	4320 g/L	
[O]=[Zn] [ZnO, Zinc oxide]	48 Pa*s	233%	112 Pa*s	17235%	8273 Pa*s			solubility in water 0.0004% at 17.8 °C
